SMILES strings stand for the structures.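 Each compound was tested at five concentrations against cells in 96-well plates for 48 hours. GI50 is the concentration that inhibits growth by half.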 Calls of active or inactive are those of the source. No stated cut-off is given here; in the data, active = GI50 up to about 1.1 µM and inactive = higher.

The values that follow come from ChEMBL document CHEMBL1201862, “PubChem BioAssay data set” (2004).

Some test systems named below: DLD-1; DMS-114; DMS-273; HOP-18; KM-20L2; M19-MEL; RXF 631; SNB-78; XF498.
Common to all, as to assay: inhibition of tumour cell growth, NCI panel, 48 h

For `O=C(CC(=O)n1nc(-c2ccccc2)c(/N=N/c2ccc(Cl)cc2)c1-c1ccccc1)Nc1ccc(Cl)cc1`, the GI50 in the assay with DLD-1 is 18.6 µM (inactive); in the assay with DMS-114, > 40.6 µM (inactive); in the assay with DMS-273 it was > 55.1 µM (inactive); in the assay on HOP-18, > 100 µM (inactive); in the assay with KM-20L2, > 76 µM (inactive); with M19-MEL, > 47.8 µM (inactive). For the same compound, the GI50 with RXF 631 and with SNB-78 was > 100 µM (inactive) throughout.
Turning to `CCOC(=O)C1=C(Nc2ccc(Cl)cc2Cl)OC/C1=N\NS(=O)(=O)c1ccc(C)cc1`, the GI50 with DLD-1, in the assay on DMS-114, in the assay on DMS-273, in the assay on HOP-18, in the assay with KM-20L2 and in the assay on M19-MEL was > 100 µM (inactive) in each case. Also, the GI50 with SNB-78 was > 100 µM (inactive).
`Cc1ccccc1C(=O)c1c(O)c2c(c(O)c1Br)CCCC2`: the GI50 in the assay with DLD-1 is 23 µM (inactive); in the assay with DMS-114 it was 13.6 µM (inactive); in the assay with DMS-273 it was 17.6 µM (inactive); in the assay on HOP-18, 12.5 µM (inactive); in the assay with KM-20L2, 19.4 µM (inactive); in the assay with M19-MEL, 15.6 µM (inactive). Further, the GI50 in the assay on SNB-78 was 21.5 µM (inactive); in the assay on XF498 it was 21.7 µM (inactive).
Regarding `CCOC1=CP(=O)(OCC)CC(C)=C1Cl` (stereo not given), the GI50 with DLD-1 is > 100 µM (inactive); with DMS-114, > 100 µM (inactive); in the assay on DMS-273, 15.7 µM (inactive); with KM-20L2 it was > 100 µM (inactive); with M19-MEL it was > 100 µM (inactive); in the assay with SNB-78 it was > 100 µM (inactive).
On to `COC(=O)C1CCC[C@H]2C(CO)=C(C)C(=O)[C@@H]12` (stereo not given in full), for which the GI50 in the assay on DLD-1, in the assay with DMS-114, in the assay on DMS-273, in the assay with HOP-18, with KM-20L2 and in the assay on SNB-78 was > 100 µM (inactive) throughout. The GI50 in the assay with XF498 was > 100 µM (inactive).
Consider `N#C/N=C(/N)NCO`, for which the GI50 is > 54 µM (inactive) in the assay with DLD-1; > 43 µM (inactive) in the assay with DMS-114; > 90.4 µM (inactive) in the assay with DMS-273; > 100 µM (inactive) with HOP-18; > 51.4 µM (inactive) with KM-20L2; > 60.5 µM (inactive) in the assay on M19-MEL. Also, the GI50 with RXF 631 was > 100 µM (inactive); in the assay on SNB-78 it was > 100 µM (inactive); in the assay with XF498, > 60.8 µM (inactive).
`O=c1nc(-c2ccccc2)scc1-c1ccccc1`: the GI50 with DLD-1, in the assay on DMS-114, in the assay with HOP-18, with KM-20L2, in the assay with M19-MEL and with RXF 631 was > 100 µM (inactive) each time. Moreover, the GI50 in the assay on XF498 is > 100 µM (inactive).
Consider `Cc1nc2c(o1)/C(=N\c1ccccc1)c1ccccc1/C2=N/c1ccccc1`, for which the GI50 is 53.6 µM (inactive) in the assay with DLD-1; 39.2 µM (inactive) in the assay on DMS-114; 63.5 µM (inactive) in the assay on DMS-273; > 100 µM (inactive) in the assay with HOP-18; > 100 µM (inactive) in the assay on KM-20L2; 55.1 µM (inactive) with M19-MEL. Besides, the GI50 was 81.7 µM (inactive) in the assay with RXF 631, 70.1 µM (inactive) with SNB-78 and > 100 µM (inactive) in the assay with XF498.
In the case of `Cc1cccc(C(C)(C)C)c1NC(=O)CCc1nnc(S)[nH]1`, the GI50 in the assay with DLD-1, with DMS-114, in the assay with DMS-273, in the assay with KM-20L2, in the assay on M19-MEL and in the assay on RXF 631 was > 100 µM (inactive) in each case. The GI50 in the assay on SNB-78 and in the assay with XF498 was > 100 µM (inactive) each time.
Turning to `CS/C(=N\C(=S)N(C)C)N(c1ccccc1)c1nc(N(C)C)s[s+]1`, the GI50 with DMS-114 is 0.708 µM (active); with DMS-273 it was 3.52 µM (inactive); in the assay with KM-20L2, 15.9 µM (inactive); with M19-MEL, 3.18 µM (inactive); with SNB-78 it was 16.9 µM (inactive).
`CCCC/C=C1\CCC(CN2CCOCC2)C1=O` (stereo not given): the GI50 is 1.75 µM (inactive) in the assay on DLD-1; 4.86 µM (inactive) in the assay on DMS-114; 3.74 µM (inactive) with DMS-273; 0.653 µM (active) with HOP-18; 4.89 µM (inactive) in the assay with KM-20L2; 4.02 µM (inactive) with M19-MEL. The GI50 in the assay on RXF 631 was 14.9 µM (inactive); in the assay with SNB-78, 8.39 µM (inactive); in the assay with XF498, 1.64 µM (inactive).
Take `N#CCCc1nc2ccc(Br)cc2c(=O)n1-c1ccc(O)c([N+](=O)[O-])c1`: the GI50 with DLD-1 is 16.9 µM (inactive); in the assay on KM-20L2, 46.3 µM (inactive); with M19-MEL it was 19.4 µM (inactive); in the assay on RXF 631, 17.9 µM (inactive); in the assay with SNB-78 it was 24.2 µM (inactive); with XF498, 17.1 µM (inactive).
Consider `CCc1ccccc1NC(=O)CCc1n[nH]c(=S)o1`, for which the GI50 was 92.5 µM (inactive) in the assay with DLD-1; > 100 µM (inactive) with DMS-114; > 100 µM (inactive) with DMS-273; > 100 µM (inactive) in the assay with HOP-18; > 100 µM (inactive) in the assay with KM-20L2; > 100 µM (inactive) in the assay with M19-MEL. For the same compound, in the assay on SNB-78, the GI50 is > 100 µM (inactive).
For the compound `COC1/C(=C\c2ccccc2I)c2ccccc2N1C(C)=O` (stereo not given), the GI50 in the assay on DLD-1 is 15.5 µM (inactive); in the assay on DMS-114, 17 µM (inactive); in the assay on DMS-273, 11.7 µM (inactive); in the assay on HOP-18, 19 µM (inactive); in the assay on KM-20L2, 15.7 µM (inactive); with M19-MEL it was 19.6 µM (inactive). In addition, the GI50 in the assay on SNB-78 was 25.2 µM (inactive).
Turning to `C=C1CCC23CC(CC[C@@H]2[C@@]12C[C@@H](c1ccoc1)OC2=O)OC3=O` (stereo not given in full), the GI50 with DLD-1, in the assay on DMS-114, in the assay on DMS-273, in the assay on HOP-18, in the assay with KM-20L2 and in the assay with M19-MEL was > 100 µM (inactive) each time. Also, the GI50 in the assay on SNB-78 and in the assay on XF498 was > 100 µM (inactive) throughout.
Regarding `CC(NC1CCCC[C@@H]1O)c1ccccc1` (stereo not given in full), the GI50 with DLD-1, with DMS-273, in the assay with HOP-18, in the assay on KM-20L2, in the assay with M19-MEL and in the assay with SNB-78 was > 100 µM (inactive) in each case. Further, in the assay on XF498, the GI50 is > 100 µM (inactive).
Consider `N#CC(C#N)=Cc1ccc(C(O)P(=O)(O)O)cc1` (stereo not given), for which the GI50 in the assay on DLD-1, in the assay with DMS-114, in the assay with DMS-273, in the assay with HOP-18, in the assay with KM-20L2 and in the assay on M19-MEL was > 100 µM (inactive) each time. The GI50 with RXF 631, in the assay with SNB-78 and in the assay on XF498 was > 100 µM (inactive) in each case.
Regarding `O=C(O)COc1ccccc1C(=O)Nc1ccccc1`, the GI50 with DLD-1, in the assay on DMS-273, in the assay with KM-20L2, in the assay on M19-MEL, in the assay on SNB-78 and with XF498 was > 100 µM (inactive) throughout.
With `C#Cc1c(C)c(/C=C/C(C)=C/C=C/C(C)=C/C(=O)OC)n(C)c1C`, the GI50 in the assay on DLD-1, in the assay on DMS-114, with KM-20L2, in the assay on M19-MEL, in the assay on RXF 631 and in the assay on SNB-78 was > 100 µM (inactive) throughout. Also, the GI50 in the assay on XF498 was > 100 µM (inactive).
In the case of `CC1=C[C@@H]2Cc3occc3C(C)(C)[C@@H]2CC1`, the GI50 was 17.7 µM (inactive) in the assay with DLD-1; 20.2 µM (inactive) in the assay with DMS-114; 13.6 µM (inactive) in the assay on DMS-273; 23.6 µM (inactive) in the assay with HOP-18; 18.5 µM (inactive) with KM-20L2; 15.6 µM (inactive) with M19-MEL. Further, the GI50 in the assay on RXF 631 was 20.4 µM (inactive); in the assay on SNB-78, 27.7 µM (inactive); with XF498, 15.3 µM (inactive).
For `CCOC(=O)C1=C(C)N(NC(N)=O)C(C)(O)C12CCOC2=O` (stereo not given), the GI50 was > 100 µM (inactive) with DLD-1; > 100 µM (inactive) in the assay with DMS-273; > 100 µM (inactive) in the assay with KM-20L2; > 100 µM (inactive) in the assay with M19-MEL; > 100 µM (inactive) in the assay on RXF 631; 1.97 µM (inactive) in the assay with SNB-78. Also, in the assay with XF498, the GI50 is > 100 µM (inactive).
With `Cc1cc(Cl)cc2c1NC(=O)C2(O)C(C)C(=O)c1ccc(Cl)cc1` (stereo not given), the GI50 with DLD-1 is > 61.2 µM (inactive); with DMS-114, 37.3 µM (inactive); in the assay with DMS-273 it was > 83.2 µM (inactive); in the assay on HOP-18 it was > 92.9 µM (inactive); with KM-20L2, > 100 µM (inactive); in the assay on M19-MEL it was 12.8 µM (inactive). The GI50 with SNB-78 is > 66.2 µM (inactive); in the assay with XF498, 42.6 µM (inactive).
In the case of `CCOC(=O)NC(=O)c1cn(CCSCCOC(=O)NCCCCCCNC(=O)OCCSCCn2cc(C(=O)NC(=O)OCC)c(=O)n(C)c2=O)c(=O)n(C)c1=O`, the GI50 in the assay on DLD-1 is 72.8 µM (inactive); in the assay with HOP-18, 0.237 µM (active); in the assay with KM-20L2, 39.7 µM (inactive); in the assay with M19-MEL it was 21.4 µM (inactive); with RXF 631, 21 µM (inactive); in the assay with SNB-78 it was > 100 µM (inactive). The GI50 in the assay on XF498 is 18.1 µM (inactive).
On to `COC(=O)/C(=N/O)C(C(=O)OC)C(=O)C(=O)Nc1c(Cl)cc(C)cc1S(=O)(=O)O` (stereo not given), for which the GI50 was > 100 µM (inactive) with DLD-1; 56.1 µM (inactive) with DMS-114; 18 µM (inactive) with DMS-273; > 100 µM (inactive) in the assay with HOP-18; > 100 µM (inactive) in the assay on KM-20L2; > 100 µM (inactive) with M19-MEL. Further, the GI50 in the assay on RXF 631, in the assay on SNB-78 and with XF498 was > 100 µM (inactive) in each case.
